Patent publication US6984635B1, “Dimerizing agents, their production and use” (Board of Trustees of The Leland Stanford Jr. University, priority 1998, dated 2006)

Assays:
Assay type in all cases: cell-based
[1] = target: T1, Gal4-FKBP3 / FRB*-VP16 (FRB harboring T2098L, W2101F, and K2095P) (Homo sapiens, UniProt P42345+P62942, K2095P/T2098L/W2101F); assay: activation of transcription in Jurkat cells transfected with Gal4-FKBP3, FRB*-VP16 and UAS-SEAP; details: for amplitude of reporter gene activity: FRB*-VP16, compared with rapamycin/wild type FRB-VP16 system; for EC50: FRB*-VP16 replaces wild type FRB-VP16, read-out: EC50 of reporter gene activity
T1 construct: FRB*-VP16 (FRB harboring T2098L, W2101F, and K2095P) replaces wild type FRB-VP16; expressed in transfected cells; host or cells: Jurkat cells
Source text: (§1) The ability of the rapalogs to multimerize chimeric proteins may be measured in cell-based assays by measuring the occurrence of an event triggered by such multimerization. For instance, one may use cells containing and capable of expressing DNA encoding a first chimeric protein comprising one or more FKBP-domains and one or more effector domains as well as DNA encoding a second chimeric protein containing an FRB domain and one or more effector domains capable, upon multimerization, of actuating a biological response. We prefer to use cells which further contain a reporter gene under the transcriptional control of a regulatory element (i.e., promoter) which is responsive to the multimerization of the chimeric proteins. The design and preparation of illustrative components and their use in so engineered cells is described in WO96/41865 and the other international patent applications referred to in this and the foregoing section. The cells are grown or maintained in culture. A rapalog is added to the culture medium and after a suitable incubation period (to permit gene expression and secretion, e.g. several hours or overnight) the presence of the reporter gene product is measured. Positive results, i.e., multimerization, correlates with transcription of the reporter gene as observed by the appearance of the reporter gene product. The reporter gene product may be a conveniently detectable protein (e.g. by ELISA) or may catalyze the production of a conveniently detectable product (e.g. colored). Materials and methods for producing appropriate cell lines for conducting such assays are disclosed in the international patent applications cited above in this section. Typically used target genes include by way of example SEAP, hGH, beta-galactosidase, Green Fluorescent Protein and luciferase, for which convenient assays are commercially available.
Likewise, C3-allyl rapamycin and C3-methallyl rapamycin were impaired in their ability to activate transcription in Jurkat cells transfected with Gal4-FKBP3, wild type FRB-VP16, and UAS-SEAP. […] C3 derivatives of rapamycin have impaired toxicity (immunosuppressive activity) and can be used efficiently as dimerizers in conjunction with engineered FRB domains. Preparation of 24(S),30(S)-tetrahydro-C3-rapalogs [drawing 30]

[2] = target: T2, Gal4-FKBP3 / wild type FRB-VP16 (Homo sapiens, UniProt P42345+P62942); assay: activation of transcription in Jurkat cells transfected with Gal4-FKBP3, wild type FRB-VP16 and UAS-SEAP
T2 construct: Jurkat cells transfected with Gal4-FKBP3, wild type FRB-VP16, and UAS-SEAP; expressed in transfected cells; host or cells: Jurkat cells
Source text: as §1, with “The reporter gene product may be a conveniently detectable protein (e.g. by ELISA) or may catalyze the production of a conveniently detectable product (e.g. colored). Materials and methods for producing appropriate cell lines for conducting such assays are disclosed in the international patent applications cited above in this section. Typically used target genes include by way of example SEAP, hGH, beta-galactosidase, Green Fluorescent Protein and luciferase, for which convenient assays are commercially available.” left out

CTLL-2 cells = assay: inhibition of proliferation of CTLL-2 cells (toxicity)
Method: The toxicity of the lead compounds was tested by their ability to inhibit the proliferation of CTLL-2 cells, which are IL-2 dependent and highly sensitive to rapamycin (IC50<1 nM).

T1 sequence (P62942 2-108 limits assumed): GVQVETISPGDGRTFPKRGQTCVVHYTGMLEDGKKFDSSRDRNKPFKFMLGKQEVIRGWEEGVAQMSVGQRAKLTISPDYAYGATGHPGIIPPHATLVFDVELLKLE
T1 sequence (P42345 2012-2144 K2095P/T2098L/W2101F limits assumed): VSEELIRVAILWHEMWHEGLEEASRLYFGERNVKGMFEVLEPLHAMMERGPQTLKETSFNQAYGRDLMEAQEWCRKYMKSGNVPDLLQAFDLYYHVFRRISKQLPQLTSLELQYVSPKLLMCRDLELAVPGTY
T2 sequence (P62942 2-108 limits assumed): as the sequence (P62942 2-108 limits assumed) above
T2 sequence (P42345 2012-2144 limits assumed): as the sequence (P42345 2012-2144 K2095P/T2098L/W2101F limits assumed) above, with P84K, L87T, F90W counted along it

Compound	amplitude of reporter gene activity [1]	EC50 [1]	ability to activate transcription (SEAP reporter) [2]	effect on proliferation of CTLL-2 cells (CTLL-2 cells; incubation with 1 μM compound)	IC50 (CTLL-2 cells; IL-2 dependent CTLL-2 cells)
C=CCC1C=CC(C)=CCC2CCC(C)C(O)(O2)C(=O)C(=O)N2CCCCC2C(=O)OC(C(C)CC2CCC(O)C(OC)C2)CC(=O)C(C)C=C(C)C(O)C(OC)C(=O)C(C)CC(C)C=C1 (centres unmarked) [C3-allyl rapamycin, 3-allyl-rapamycin]	higher than that elicited by the rapamycin/wild type FRB-VP16 system	~10 nM	impaired	–	–
C=C(C)CC1C=CC(C)=CCC2CCC(C)C(O)(O2)C(=O)C(=O)N2CCCCC2C(=O)OC(C(C)CC2CCC(O)C(OC)C2)CC(=O)C(C)C=C(C)C(O)C(OC)C(=O)C(C)CC(C)C=C1 (centres unmarked) [C3-methallyl rapamycin, 3-methallyl-rapamycin]	higher than that elicited by the rapamycin/wild type FRB-VP16 system	~10 nM	impaired	no detectable effect	–
Rapamycin [reference compound]	–	–	–	–	< 1 nM
